Test results taken from ChEMBL document CHEMBL1255253, “The naphthyridinone GSK364735 is a novel, potent human immunodeficiency virus type 1 integrase inhibitor and antiretroviral” (Antimicrob Agents Chemother, 2008).
Calls of active or inactive are those of the source. The rule behind the calls is not given here.

How the values were obtained:
[1] = test system: Human immunodeficiency virus 1; experiment: Antiviral activity against Human immunodeficiency virus 1 Ba-L infected in human PBMCs assessed as inhibition of viral replication; assay type: functional, organism-based
[2] = test system: Human immunodeficiency virus 1; assay type: functional, organism-based; conditions: NL432, MT4
[3] = test system: Human immunodeficiency virus 1; assay type: functional, organism-based; conditions: NL432, MT4; remark: listed apart in the source
[4] = test system: Human immunodeficiency virus 1; assay type: functional, organism-based; conditions: NL432, MT4; remark: listed apart in the source
[5] = target: T1, Human immunodeficiency virus type 1 integrase (Human immunodeficiency virus 1, UniProt Q7ZJM1); experiment: Displacement of 20 nM [3H]GSK304649 from Human immunodeficiency virus 1 integrase by scintillation proximity assay
T1 sequence (Q7ZJM1 whole entry): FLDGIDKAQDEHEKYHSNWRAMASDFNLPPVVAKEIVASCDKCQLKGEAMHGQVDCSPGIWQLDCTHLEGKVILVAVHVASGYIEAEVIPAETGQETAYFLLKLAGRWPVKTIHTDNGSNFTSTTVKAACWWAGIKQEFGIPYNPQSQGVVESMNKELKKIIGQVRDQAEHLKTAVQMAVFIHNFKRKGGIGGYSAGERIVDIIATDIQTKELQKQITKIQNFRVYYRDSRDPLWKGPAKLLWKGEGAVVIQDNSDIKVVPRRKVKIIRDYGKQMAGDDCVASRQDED

[6] = test system: Human immunodeficiency virus 1; assay type: functional, organism-based; conditions: Human immunodeficiency virus 1, 3B, MT4
[7] = test system: Human immunodeficiency virus; experiment: microbe, parasite or virus in culture; conditions: Human immunodeficiency virus 1, MT4
Description: Antiviral activity against vesicular stomatitis virus G-pseudotyped Human immunodeficiency virus infected in human MT-4 cells assessed as inhibition of viral replication

[8] = test system: Human immunodeficiency virus 1; experiment: Antiviral activity against PI-resistant Human immunodeficiency virus 1; assay type: functional, organism-based
[9] = test system: Human immunodeficiency virus 1; experiment: Antiviral activity against INI-resistant Human immunodeficiency virus 1 expressing integrase T124A mutant gene infected in human HeLa-CD4 cells after 3 days; assay type: functional
[10] = test system: Human immunodeficiency virus 1; experiment: Antiviral activity against Human immunodeficiency virus 1 Ba-L infected in human PBMCs assessed as inhibition of viral replication in presence of human serum; assay type: functional, organism-based
[11] = test system: Human immunodeficiency virus 1; experiment: Antiviral activity against INI-resistant Human immunodeficiency virus 1 expressing integrase Q146R mutant gene infected in human HeLa-CD4 cells after 3 days; assay type: functional
[12] = test system: Human immunodeficiency virus 1; experiment: Antiviral activity against INI-resistant Human immunodeficiency virus 1 expressing integrase M154I mutant gene infected in human HeLa-CD4 cells after 3 days; assay type: functional
[13] = test system: Human immunodeficiency virus 1; experiment: Antiviral activity against INI-resistant Human immunodeficiency virus 1 expressing integrase T66I mutant gene infected in human HeLa-CD4 cells after 3 days; assay type: functional
[14] = test system: Human immunodeficiency virus 1; experiment: Antiviral activity against INI-resistant Human immunodeficiency virus 1 expressing integrase F121Y mutant gene infected in human HeLa-CD4 cells after 3 days; assay type: functional, organism-based
[15] = target: T1, Human immunodeficiency virus type 1 integrase; experiment: Displacement of [3H]GSK304649 from Human immunodeficiency virus 1 integrase by scintillation proximity assay
[16] = test system: Human immunodeficiency virus 1; experiment: Antiviral activity against INI-resistant Human immunodeficiency virus 1 expressing integrase Q148R mutant gene infected in human HeLa-CD4 cells after 3 days; assay type: functional, organism-based
[17] = target: T1, Human immunodeficiency virus type 1 integrase; experiment: Inhibition of Human immunodeficiency virus 1 integrase by strand transfer scintillation proximity assay
[18] = test system: Human immunodeficiency virus 1; experiment: Antiviral activity against RTI-resistant Human immunodeficiency virus 1; assay type: functional, organism-based
[19] = test system: Human immunodeficiency virus 1; experiment: Antiviral activity against INI-resistant Human immunodeficiency virus 1 expressing integrase T66K mutant gene infected in human HeLa-CD4 cells after 3 days; assay type: functional, organism-based
[20] = test system: Human immunodeficiency virus 1; experiment: Antiviral activity against INI-resistant Human immunodeficiency virus 1 expressing integrase N155S mutant gene infected in human HeLa-CD4 cells after 3 days; assay type: functional, organism-based
[21] = test system: Human immunodeficiency virus 1; experiment: Antiviral activity against INI-resistant Human immunodeficiency virus 1 expressing integrase Q148K mutant gene infected in human HeLa-CD4 cells after 3 days; assay type: functional, organism-based
[22] = test system: Human immunodeficiency virus 1; experiment: Antiviral activity against INI-resistant Human immunodeficiency virus 1 expressing integrase P145S mutant gene infected in human HeLa-CD4 cells after 3 days; assay type: functional
[23] = test system: Human immunodeficiency virus 1; experiment: Antiviral activity against INI-resistant Human immunodeficiency virus 1 expressing integrase S153Y mutant gene infected in human HeLa-CD4 cells after 3 days; assay type: functional
[24] = test system: Human immunodeficiency virus 1; experiment: Antiviral activity against INI-resistant Human immunodeficiency virus 1 expressing integrase E92Q mutant gene infected in human HeLa-CD4 cells after 3 days; assay type: functional

## O=C(NCc1ccc(F)cc1)c1nc(N2CCCCS2(=O)=O)c2cccnc2c1O
[1]
  EC50: 3 nM
[2]
  Activity: inactive
[3]
  Activity: Dose-dependent effect
[4]
  Activity: Dose-dependent effect
[5]
  IC50: 13 nM
  Kd: 3.3 nM
[6]
  EC50: 11 nM
[7]
  EC50: 2.2 nM

## O=C1Nc2ccc(Cl)cc2[C@@](C#CC2CC2)(C(F)(F)F)O1
[2]
  Activity: inactive
[3]
  Activity: Dose-dependent effect
[4]
  Activity: Dose-dependent effect

## COc1cc2c(cc1Cc1cccc(Cl)c1F)c(=O)c(C(=O)O)cn2[C@H](CO)C(C)C
[1]
  EC50: 2 nM
[6]
  EC50: 2 nM
[7]
  EC50: 1 nM

## Cn1c(=O)c(C(=O)NCCO)c(O)c2ncc(Cc3ccc(F)cc3)cc21 [GSK-364735]
[8]
  IC50: 2 nM
[9]
  fold change (FC): 1
[10]
  EC50: 42 nM
[11]
  fold change (FC): 1.7
[12]
  fold change (FC): 0.8
[1]
  EC50: 2 nM
[2]
  Activity: inactive
[13]
  fold change (FC): 1.2
[14]
  Activity: inactive
[15]
  Kd: 26 nM
[16]
  Activity: inactive
[3]
  Activity: Dose-dependent effect
[17]
  IC50: 7.8 nM
[18]
  IC50: 2.2 nM
[19]
  Activity: inactive
[20]
  Activity: inactive
[4]
  Activity: Dose-dependent effect
[21]
  Activity: inactive
[5]
  IC50: 11 nM
[6]
  EC50: 5 nM
[22]
  fold change (FC): 1.4
[23]
  fold change (FC): 1.4
[7]
  EC50: 1.7 nM
[24]
  fold change (FC): 3.7

## Cc1nnc(C(=O)NC(C)(C)c2nc(C(=O)NCc3ccc(F)cc3)c(O)c(=O)n2C)o1
[1]
  EC50: 2 nM
[6]
  EC50: 1.8 nM
[7]
  EC50: 2 nM
